Results from patent publication US20130090320A1, “METHOD OF TREATING PROSTATE CANCER” (NIIKI PHARMA INC., priority 2010, published 2013).

Assays:
LNCaP cell line [1] = details: Domingo-Domenech et al., Clin. Cancer Res. 2006; cited from earlier work
PC-3 cell line = details: Domingo-Domenech et al., Clin. Cancer Res. 2006; cited from earlier work
LNCaP cell line [2] = experiment: Docetaxel IC50 in LNCaP from published literature; type: cell-based, human; details: ratio of literature docetaxel IC50 in LNCaP to IC50 in PC-3
Protocol: In addition, the IC50 values of docetaxel in the LNCaP and PC-3 cell lines were obtained from published literature. The ratios of IC50 values of sodium trans-[tetrachlorobis(1H-indazole)ruthenate(III)] in a cell line sensitive to one of the other drugs and a cell line insensitive to the same drug were calculated. The results are shown in Table 1 below (“Test Drug” in the table denotes sodium trans-[tetrachlorobis(1H-indazole)ruthenate(III)]). […] See Domingo-Domenech et al., Clin. Cancer Res., 12(18):5578-5586 (2006); Blagosklonny et al., J. Urol. 163(3):1022-6 (2000). As such, sodium trans-[tetrachlorobis(1H-indazole)ruthenate(III)] is potentially effective in treating prostate cancer resistant to such other drugs.

[3] = system: PC-3 (Prostate carcinoma); details: PC-3 cell line, MTT, 72 hours post-treatment
Protocol: (§1) To test the activities of sodium trans-[tetrachlorobis(1H-indazole)ruthenate(III)], ATCC's MTT Cell Proliferation Assay® was performed using human prostate cancer cell lines LNCaP clone FGC (prostate carcinoma) and PC-3 (Prostate carcinoma). Stock cultures were allowed to grow to 70-80% confluence for this study. The anti-proliferative activity of sodium trans-[tetrachlorobis(1H-indazole)[…]], against the indicated cell lines was evaluated in vitro using the ATCC's MTT Cell Proliferation Assay (Catalog No. 30-1010K). LNCaP clone FGC plates were seeded with 4,000 cells/well, and the cells were grown in RPMI 1640 medium containing 1% HEPES (1M solution), 1% sodium pyruvate, 1% glucose (45% solution), 10% heat-inactivated FBS and 1% penicillin/strep/glutamine. PC-3 plates were seeded with 6,000 cells/well, and the cells were grown in Ham's F12 medium containing 10% heat-inactivated FBS, and 1% penicillin/strep/glutamine. Cultures were maintained in a 37° C. humidified 5% CO2/95% air atmosphere. The cells were treated with sodium trans-[tetrachlorobis(1H-indazole)ruthenate(III)] at 1,000 μM, or a series of 4× dilutions thereof (250 μM, 62.5 μM, etc.). 100 μl of medium was removed from each well at 72 hours post-treatment and 10 μl MTT reagent was added to each well. […] The plates were left overnight at room temperature in the dark and was read on a plate reader using SoftMax® Pro (version 5.2, Molecular Devices).
(§2) The absorbance data was analyzed as follows: Absorbance values were converted to Percent of Control and plotted against test agent concentrations for IC50 calculations using SoftMax® Pro (version 5.2, Molecular Devices). […] Percent of Control values were calculated by dividing the absorbance values for each test well by the No Drug Control average (column 11 values; cells+vehicle control) and multiplying by 100. Plots of Compound Concentration versus Percent of Control were analyzed using the 4-parameter equation to obtain IC50 values and other parameters that describe the sigmoidal dose response curve. […]

[4] = system: LNCaP clone FGC (prostate carcinoma)
Protocol: as §1, §2

In the case of `CC(=O)O[C@@]12CO[C@@H]1C[C@H](O)[C@@]1(C)C(=O)[C@H](O)C3=C(C)[C@@H](OC(=O)[C@H](O)[C@@H](NC(=O)OC(C)(C)C)c4ccccc4)C[C@@](O)([C@@H](OC(=O)c4ccccc4)[C@H]21)C3(C)C` [Docetaxel, docetaxel], the IC50 (LNCaP cell line [1]) is given as 0.05 to 0.06 µM, the IC50 (PC-3 cell line) is given as 0.0025 to 0.005 µM and the “IC50 Ratio (LNCaP/PC-3)” value (LNCaP cell line [2]) is given as 12-20.

In the case of `[Cl][Ru-]([Cl])([Cl])[Cl].[Na+].c1ccc2[nH]ncc2c1.c1ccc2[nH]ncc2c1` [sodium trans-[tetrachlorobis(1H-indazole)ruthenate(III)]], the IC50 [3] is reported as 41.8 µM, the IC50 ([4]; LNCaP cell line, MTT, 72 hours post-treatment) is reported as 17.3 µM and the “IC50 Ratio (LNCaP/PC-3)” value ([4]; ratio of Test Drug IC50 in LNCaP to IC50 in PC-3) is reported as 0.41.
